For experiment [1], the system named is hPPAEC. Put plainly: In vitro vascular permeability assay (FITC-dextran), hPPAEC monolayer, CXCR4/ACKR3 ligands without thrombin. It counts as cell-based, human. The following applies: 50 nM ligand for 10 min, then FITC-dextran; no thrombin. As to the method:
FIGS. 1A-1B show expression of CXCR4, ACKR3 and CXCR4:ACKR3 heteromers on hPPAEC and effects of CXCR4/ACKR3 ligands on hPPAEC monolayer permeability. (A) Detection of CXCR4, ACKR3 and CXCR4:ACKR3 heteromers on hPPAEC by PLA. Typical PLA images for the detection of individual receptors and CXCR4:ACKR3 heteromers. Images show merged PLA/40,6-diamidino-2-phenylindole dihydrochloride (DAPI) signals. Ctrl: Omission of one secondary antibody. (B) hPPAEC were grown to a confluent monolayer on collagen-coated permeable membranes. Cells were then exposed to vehicle or 50 nM of CXCR4/ACKR3 ligands for 10 minutes, as indicated, followed by the addition of FITC-dextran. Endothelial permeability was assessed by measuring the amount of FITC-dextran that permeated through the cell monolayer. N=3 in quadruplicate. No cells: 100% permeability, open squares. RFU: Relative fluorescence units. *: p<0.05 vs. vehicle (2-way ANOVA/Bonferroni's multiple comparison post hoc test).
Cells and cell lines—Human primary pulmonary artery endothelial cells (hPPAEC) (ATCC, PCS-100-022) and the human lung microvascular endothelial cell line HULEC-5a (ATCC, CRL-3244) were cultured in vascular cell basal medium (ATCC, PCS-100-030) with endothelial cell growth kit-VEGF (ATCC, PCS-100-041). The HTLA cell line, a HEK293 cell line stably expressing a tTA-dependent luciferase reporter and a β-arrestin2-TEV fusion gene, was generously provided by the laboratory of Dr. Bryan Roth and maintained in high glucose Dulbecco's Modified Eagle's Medium supplemented with 10% (vol/vol) FBS, 1× non-essential amino acids, 100 U/mL penicillin, 100 μg/mL streptomycin, 50 μg/mL hygromycin B, and 2 μg/mL puromycin. All cells were cultured at 37° C., 5% CO2 in a humidified atmosphere.
(§1) In vitro vascular permeability assays—Permeability assays were obtained from Millipore (ECM642) and performed as per manufacturer's instructions. In brief, 96-well collagen-coated permeability assay plates were pre-hydrated for 15 min, 5×10^5 cells were seeded on each well and grown to a confluent monolayer for 48 hours. Fluorescein isothiocyanate (FITC)-dextran (20 μg/mL) was then added on top of the monolayer and the amount of FITC-dextran that permeated through the monolayer was quantified by measuring fluorescence in a Synergy 2 Multi-mode Microplate Reader (BioTek, Winooski, Vt.) at various time points over a 255 min time period.

For experiment [2], the system named is hPPAEC. The experiment in a line: Effects of CXCR4 agonists / CXCL12 variants on thrombin-induced impairment of hPPAEC monolayer permeability. Type of experiment: cell-based, human. As to the method:
FIGS. 3A-3D show effects of CXCL12 and ubiquitin on thrombin-induced impairment of hPPAEC monolayer permeability. hPPAEC were grown to a confluent monolayer on collagen-coated permeable membranes. (A) hPPAEC were pre-treated with vehicle, 100 nM of CXCL12 or ubiquitin for 10 minutes, as indicated, and then exposed to thrombin (50 nM), followed by the addition of FITC-dextran. Vehicle: no thrombin. Endothelial permeability was assessed by measuring the amount of FITC-dextran that permeated through the cell monolayer. No cells: 100% permeability (open circles). RFU: Relative fluorescence units. N=3 in quadruplicate. *: p<0.05 vs. vehicle/thrombin. (B-D) hPPAEC were exposed to 35 nM of thrombin or vehicle. After 10 min, thrombin-exposed cells were treated with vehicle, CXCL12 (50 nM) and/or AMD3100 (10 μM) (B), with vehicle, ubiquitin (50 nM) and/or AMD3100 (10 μM) (C) or with various concentrations of ubiquitin (D) followed by the addition of FITC-dextran. The experimental conditions are indicated. Endothelial permeability was assessed by measuring the amount of FITC-dextran that permeated through the cell monolayer. RFU: Relative fluorescence units. N=3 in quadruplicate. *: p<0.05 vs. thrombin/vehicle (2-way ANOVA/Bonferroni's multiple comparison post hoc test).
FIGS. 7A-7D show dose-dependent effects of CXCL12α/β, CXCL12 (3-68) and CXCL12 mutants K27A/R41A/R47A, R47E and S-S4V on thrombin-induced impairment of hPPAEC monolayer permeability. hPPAEC cells were grown to a confluent monolayer on collagen-coated permeable membranes. hPPAEC were then exposed to 35 nM of thrombin. After 10 min, thrombin-exposed cells were treated with vehicle or 50 nM (A), 5 nM (B), 0.5 nM (C) or 0.05 nM (D) of the various proteins, as indicated. In (D) 5 nM CXCL12a was used as a positive control. N=3 in quadruplicate.
FIGS. 8A-8D show dose-dependent effects of CXCL12α, CXCL121 and CXCL122 on thrombin-induced impairment of hPPAEC monolayer permeability. hPPAEC cells were grown to a confluent monolayer on collagen-coated permeable membranes. hPPAEC were then exposed to 35 nM of thrombin. After 10 min, thrombin-exposed cells were treated with vehicle or 50 nM (A), 5 nM (B), 0.5 nM (C) or 0.05 nM (D) of the various proteins, as indicated. In (D) 5 nM CXCL12α was used as a positive control. N=3 in quadruplicate.
FIGS. 9A-9B show inhibition of thrombin-induced hyper-permeability of hPPAEC by CXCL12/CXCL12 variants. % inhibition: % inhibition of thrombin-induced hyperpermeability. Data from FIGS. 7 and 8 at t=255 min. N=3 in quadruplicate. *: p<0.05 vs. CXCL12a (2-way ANOVA/Bonferroni's multiple comparison post hoc test).
as §1

Experiment [3] has as its target T1, CXCR4 (Homo sapiens, UniProt P61073).
T1 construct: host or cells: HTLA cells (HEK293 line stably expressing a tTA-dependent luciferase reporter and a β-arrestin2-TEV fusion gene)
Put plainly: Presto-Tango β-arrestin 2 recruitment assay for CXCR4. It counts as cell-based. The method, then:
FIGS. 6A-6F show Presto-Tango β-arrestin 2 recruitment assays for CXCR4 (A-C) and ACKR3 (D-F). RLU %: % of the luminescence signal for 1 μM CXCL12α. N=9 for CXCL12a and n=3 for all other proteins.
Presto-Tango β-arrestin 2 recruitment assay—The PRESTO-Tango (parallel receptorome expression and screening via transcriptional out-put, with transcriptional activation following arrestin translocation) assay was performed as recently described. The Tango plasmids were a gift from Dr. Bryan Roth (all from Addgene). HTLA cells (2.5×10^5/well) were seeded in a 6-well plate and transfected with 1.5 μg of the Tango plasmids using Lipofectamine 3000 (ThermoScientific). The following day, transfected HTLA cells (1×10^5 cells/well) were plated onto Poly-L-Lysine pre-coated 96-well micro-plates and allowed to attach to the plate surface for at least 4 hours prior to treatment. Proteins used for treatment were prepared in twice the final concentration in culture media, added at a 1:1 vol/vol ratio and incubated overnight at 37° C., 5% CO2 in a humidified environment. The following morning, media was removed from cell culture plates and replaced with a 100 μL 1:5 mixture of Bright-Glo (Promega) and 1×HBSS, 20 mM HEPES solution. Plates were then incubated at room temperature before measuring luminescence on a Biotek Synergy II plate reader.
For orientation: Activated receptors often draw arrestin, which recruitment assays turn into a signal.

Experiment [4] relates to animal model of acute respiratory distress syndrome (ARDS). The experiment in a line: Animal model of ARDS: lung ischemia reperfusion injury plus hemorrhage (P:F ratio, lung injury score). It counts as in vivo, Sprague-Dawley rats. The settings on record: for development of ARDS (P:F ratio): 0.14 μmol/kg i.v. within 10 min after reperfusion, until t=300 min; for histological signs of lung injury, injured lung (lung injury score): H&E sections, vs. vehicle. The method, then: Animals underwent 70 min of […] lung ischemia for 70 min plus hemorrhage to a MAP of 40 mmHg for the last 30 min of ischemia, followed by fluid resuscitation to a MAP of 60 mmHg until t=300 min. Arrow: drug injection. Dashed lines indicate the P:F ratio (mmHg) threshold values for the diagnosis of mild, moderate and severe ARDS. Vehicle: n=5. CXCL12: n=3. CXCL12: n=4. CXCL12-LM: n=3, CXCL12-LD: n=4. CXCL12 K27A/R41A/R47A: n=3. LI+HEM: lung ischemia reperfusion injury plus hemorrhage. Data are mean±SEM. *: p<0.05 vs. vehicle (2-way ANOVA/Dunnett's multiple comparisons test).
FIGS. 12A-12C show lung histology after treatment with CXCL12 and engineered CXCR4 agonists A. Lung specimens were placed in formalin fixative solution and were then embedded in paraffin wax, sliced into 5 μm sections and stained with H&E. Representative images from H&E stained lung sections from animals after vehicle (left) and CXCL12 ([…], right treatment. B/C. Lung injury scores (B. uninjured (left) lung; C. injured (right) lung). Data are median±interquartile ranges. Data were analyzed with the Kruskal Wallis test with Dunn's multiple comparisons test. The level of statistical significance (p) vs. ctrl. (vehicle treatment) indicated.
We tested therapeutic efficacy of wild-type CXCL12, CXXL12-locked dimer (LD), CXCL12-locked monomer (LM) and the triple mutant CXCL12 K27A/R41A/R47A in an animal model of acute respiratory distress syndrome (ARDS) (FIG. 11). All drugs were injected in a dose of 0.14 μmol/kg. Male Sprague-Dawley rats were anesthetized, orotracheally intubated, instrumented with arterial/venous catheters, and mechanically ventilated (PEEP 2 mmHg, FiO2 1.0). After a right lateral thoracotomy, a suture was tied around the hilum of the right lung. Animals underwent 70 min of right lung ischemia plus hemorrhage to a mean arterial blood pressure (MAP) of 40 mmHg for the last 30 min of lung ischemia. At t=70 min, the suture was removed, animals were ventilated with FiO2 1.0, PEEP 5 mmHg and resuscitated with crystalloids to a MAP of 60 mmHg until t=300 min. Vehicle and drugs were injected i.v. within 10 min after reperfusion.
We further evaluated histomorphology of the lungs from animals treated with vehicle, wild-type CXCL12, CXCL12-LD and CXCXL12-LM utilizing a standardized lung injury score. Lung slides stained with hematoxylin and eosin were examined under a light microscope by 4 investigators blinded to the identity of the specimens. The lung injury score was assessed as previously described/. In brief each investigator rendered a score of 0 (no damage) to 4+(maximal damage) based on an injury grading scale composed of six criteria. The slides were assessed for the extent of alveolar congestion, hemorrhage and edema, as well as alveolar and vessel wall PMN infiltration and alveolar wall thickness. […] Lung injury scores of the uninjured and injured lungs from animals treated with vehicle, wild-type CXCL12, CXCL12-LD and CXCXL12-LM are shown in FIGS. […], respectively.

T1 sequence (P61073 whole entry, the tested form may be a part): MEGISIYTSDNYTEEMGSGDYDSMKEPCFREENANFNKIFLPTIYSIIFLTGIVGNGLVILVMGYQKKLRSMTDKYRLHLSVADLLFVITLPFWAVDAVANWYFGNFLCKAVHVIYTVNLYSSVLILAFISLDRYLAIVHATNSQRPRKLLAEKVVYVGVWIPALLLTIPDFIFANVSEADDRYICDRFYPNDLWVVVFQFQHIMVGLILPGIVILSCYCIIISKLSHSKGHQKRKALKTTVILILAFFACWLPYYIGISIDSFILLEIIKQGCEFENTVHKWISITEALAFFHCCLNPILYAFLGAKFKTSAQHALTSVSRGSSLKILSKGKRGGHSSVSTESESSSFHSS

As to `c1cc(CN2CCCNCCNCCCNCC2)ccc1CN1CCCNCCNCCCNCC1` [AMD3100], in experiment [1], the “effect on hPPAEC monolayer permeability” value is “did not affect hPPAEC permeability”. In addition, the “effect on thrombin-induced permeability of hPPAEC when added after thrombin” value in experiment [2] (thrombin 35 nM, after 10 min CXCL12 or ubiquitin 50 nM, AMD3100 10 μM) is “did not affect thrombin-mediated hyper-permeability of hPPAEC”. Besides, in experiment [2] (thrombin 35 nM, CXCL12 50 nM plus AMD3100 10 μM), the “antagonism of the CXCL12 effect on thrombin-induced permeability” value is on record as “could be antagonized”.

As for “CXCL121: constitutively monomeric CXCL12 variant with L55C and I58C substitutions (SEQ ID NO:2)”, the “potency (EC50) to recruit β-arrestin 2 to CXCR4, compared with CXCL12α” value in experiment [3] is “no statistically significant differences”. Besides, in experiment [4], the “development of ARDS (P:F ratio)” value is “prevented development of ARDS” and the “histological signs of lung injury, injured lung (lung injury score)” value was “significantly reduced”.

Regarding “CXCL122: constitutively dimeric, disulfide-locked CXCL12 variant containing L36C/A65C mutations (SEQ ID NO:3)”, the “potency to attenuate thrombin-induced permeability of hPPAEC (in words)” value in experiment [2] is listed as “significantly reduced potency”. Besides, in experiment [2] (tested 0.05-50 nM, t=255 min), the “concentration at which thrombin-mediated hPPAEC barrier impairment was affected” value worked out at 50 nM. In experiment [3], the “potency (EC50) to recruit β-arrestin 2 to CXCR4, compared with CXCL12α” value is reported as “no statistically significant differences”. Moreover, in experiment [4], the “development of ARDS (P:F ratio)” value is recorded as “prevented development of ARDS” and the “histological signs of lung injury, injured lung (lung injury score)” value was “significantly reduced”.

B1: CXCL11: an ACKR3 and CXCR3 agonist (protein, UniProt O14625 22-94, looked up)
C-X-C motif chemokine 11: FPMFKRGRCLCIGPGVKAVKVADIEKASIMYPSNNCDKIEVIITLKENKGQRCLNPKSKQARLIIKKVERKNF
Turning to B1, the “effect on hPPAEC monolayer permeability” value in experiment [1] is given as “did not affect hPPAEC permeability”.

Values taken from US20210052701A1, “Methods of Treating Vascular Leakage Using CXCL12 Peptides” (The Medical College of Wisconsin, Inc., priority 2018, published 2021).
